Results from patent publication US20140341895A1, “PSEUDOMONAS AERUGINOSA OprM EPITOPES FOR USE IN DIAGNOSTICS AND THERAPEUTICS” (priority 2011, published 2014).
No end group written: not given here.

How the values were obtained:
[1] = tested on: P. aeruginosa strain MSC06120; settings: multidrug resistant P. aeruginosa strain MSC06120; stated as normal values; cited from earlier work
OprM outer loops = test: rabbit immunization with KLH-conjugated OprM outer loop peptides, sera screened for immune reaction; format: in vivo; settings: NZW rabbits, 500 μg per injection subcutaneously on days 0, 21, 42, 63, 84, 105; sera screened for immune reaction to OprM outer loops
Experimental: Polyclonal antibodies were produced using each of the OprM outer loops (with surrounding amino acid residues) conjugated to KLH as immunogens. Rabbits were screened prior to antigen injection for background antibodies that recognize the OprM outer loop immunogens to be used (i.e., SEQ ID NOS:3 and 4). Pre-immune rabbit sera was assayed by ELISA for antibodies to the immunogen.
Eight NZW rabbits were immunized on days 0, 21, 42, 63, 84 and 105 subcutaneously with either KLH-conjugated OprM outer loop 1 (SEQ ID NO:3) or outer loop 2 (SEQ ID NO:4) peptides (500 μg per injection). The Day 0 injection was formulated with Titermax while all subsequent injections were formulated with Freund's incomplete adjuvant. The rabbits were bled on days 52 (5 ml serum obtained), 73 (20 ml serum obtained), 94 (20 ml serum obtained), 115 (20 ml serum obtained) and 118 (50 ml serum obtained).

[2] = target: T1, OprM outer loop 1 (SEQ ID NO:3) (Pseudomonas aeruginosa, UniProt Q51487); test: ELISA of immunized rabbit sera, antigen outer loop 1 peptide; format: binding; settings: antigen SEQ ID NO:3; four rabbits per immunogen; FIG. 1 and 2
T1 construct: made in house; host or cells: chemical peptide synthesis
T1 sequence (Q51487 whole entry, looked up): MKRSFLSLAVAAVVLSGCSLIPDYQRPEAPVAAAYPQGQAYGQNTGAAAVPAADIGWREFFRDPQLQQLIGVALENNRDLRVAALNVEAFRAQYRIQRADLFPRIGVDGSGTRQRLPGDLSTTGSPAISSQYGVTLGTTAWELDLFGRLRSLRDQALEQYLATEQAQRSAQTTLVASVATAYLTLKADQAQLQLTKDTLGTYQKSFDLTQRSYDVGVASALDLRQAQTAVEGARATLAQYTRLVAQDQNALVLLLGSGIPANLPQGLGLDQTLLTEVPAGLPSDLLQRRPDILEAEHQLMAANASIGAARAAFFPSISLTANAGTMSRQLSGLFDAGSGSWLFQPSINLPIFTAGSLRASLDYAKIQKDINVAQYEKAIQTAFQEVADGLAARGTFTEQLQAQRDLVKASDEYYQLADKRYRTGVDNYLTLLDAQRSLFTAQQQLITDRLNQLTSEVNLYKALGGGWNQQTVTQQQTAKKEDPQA
Experimental: (§1) Sera was assayed by ELISA to measure the amount of anti-OprM antibodies that were induced by the immunization. Purified peptide from either outer loop 1 or outer loop 2 was plated each well of a 96-well plate. A solution of PBS+3% BSA was used for non-specific blocking and sample/control/secondary antibody dilutions. The sample serum was run against a negative control (normal sera) and a positive control (anti-ovalbumin). The signal was detected using HRP conjugated anti-rabbit secondary antibodies and ABTS peroxidase substrate system. The plates were read at a wavelength of 415 nm with a reference at 570 nm.

[3] = target: T2, OprM outer loop 2 (SEQ ID NO:4) (Pseudomonas aeruginosa, UniProt Q51487); test: ELISA of immunized rabbit sera, antigen outer loop 2 peptide; format: binding; settings: antigen SEQ ID NO:4; four rabbits per immunogen; FIG. 1 and 2
T2 construct: made in house; host or cells: chemical peptide synthesis
T2 sequence (Q51487 whole entry, looked up): T1 sequence (Q51487 whole entry, looked up)
Experimental: as §1

Compound | growth inhibitory concentration [1] [µg/mL] | immune response in immunized rabbits (OprM outer loops) | antibodies in sera binding to peptide containing outer loop 1 (titer / cross-reactivity), ELISA [2] | antibodies in sera binding to peptide containing outer loop 2 (titer / cross-reactivity), ELISA [3]
NCC[C@H](O)C(=O)N[C@@H]1C[C@H](N)[C@@H](O[C@H]2O[C@H](CN)[C@@H](O)[C@H](O)[C@H]2O)[C@H](O)[C@H]1O[C@H]1O[C@H](CO)[C@@H](O)[C@H](N)[C@H]1O [amikacin] | 64 | – | – | –
O=C(O)c1cn(C2CC2)c2cc(N3CCNCC3)c(F)cc2c1=O [ciprofloxacin] | > 256 | – | – | –
KLH-conjugated OprM outer loop 1 (SEQ ID NO:3): OprM outer loop 1 peptide with surrounding residues (SEQ ID NO:3), N-terminal CKK added, conjugated to keyhole limpet hemocyanin carrier (CKKRLPGDLSTTGSPA; also: conjugated to KLH carrier, site not given here; listed as Pseudomonas aeruginosa) | – | generated an immune response | high titer | 1 rabbit showed a small amount of cross-reactivity
outer loop 2 (SEQ ID NO:4): OprM outer loop 2 peptide with surrounding residues (SEQ ID NO:4), N-terminal CKK added, conjugated to keyhole limpet hemocyanin carrier (CKKSRQLSGLFDAGSG; also: conjugated to KLH carrier, site not given here; listed as Pseudomonas aeruginosa) | – | generated an immune response | 2 rabbits showed a small amount of cross-reactivity | high titer
